Bridge positions count the residues as written; N and C are the ends. Square brackets hold non-standard residues; d marks the D form. Peptide text beside a SMILES is read from it. * marks the point of attachment. ξ: configuration not given here. Phe(4-CH2CH2COOH) = N[C@@H](Cc1ccc(CCC(=O)O)cc1)C(=O)O; Phe(3-CF3) = N[C@@H](Cc1cccc(C(F)(F)F)c1)C(=O)O; Phe(4-COOH) = N[C@@H](Cc1ccc(C(=O)O)cc1)C(=O)O; Bip = N[C@@H](Cc1ccc(-c2ccccc2)cc1)C(=O)O; Phe(4-CN) = N#Cc1ccc(C[C@H](N)C(=O)O)cc1; NH(CH2)14COOH = O=C(O)CCCCCCCCCCCCCCN*; Phe(3-Me) = Cc1cccc(C[C@H](N)C(=O)O)c1; NH(CH2)12COOH = O=C(O)CCCCCCCCCCCCN*; Phe(2-Me) = Cc1ccccc1C[C@H](N)C(=O)O; Val(3-OH) = CC(C)(O)[C@H](N)C(=O)O; 4Pal = N[C@@H](Cc1ccncc1)C(=O)O; Cha = N[C@@H](CC1CCCCC1)C(=O)O; Cit = NC(=O)NCCC[C@H](N)C(=O)O; Thr(3ξ) = CC(O)[C@H](N)C(=O)O; Carboxymethyl = O=C(O)C*; Orn = NCCC[C@H](N)C(=O)O; Aun = NCCCCCCCCCCC(=O)O; Dab = NCC[C@H](N)C(=O)O; Abu = CC[C@H](N)C(=O)O; Dap = NC[C@H](N)C(=O)O; AEEA = NCCOCCOCC(=O)O; Ac3c = NC1(C(=O)O)CC1; Piv = CC(C)(C)C(=O)*

This test deals with T1, PD-1/PD-L1 interaction (PE-labeled human PD-L1-Ig binding to Jurkat cell line over-expressing human PD-1) (Homo sapiens, UniProt Q15116).
T1 construct: expressed in transfected cells; host or cells: Jurkat
T1 sequence (Q15116 25-288): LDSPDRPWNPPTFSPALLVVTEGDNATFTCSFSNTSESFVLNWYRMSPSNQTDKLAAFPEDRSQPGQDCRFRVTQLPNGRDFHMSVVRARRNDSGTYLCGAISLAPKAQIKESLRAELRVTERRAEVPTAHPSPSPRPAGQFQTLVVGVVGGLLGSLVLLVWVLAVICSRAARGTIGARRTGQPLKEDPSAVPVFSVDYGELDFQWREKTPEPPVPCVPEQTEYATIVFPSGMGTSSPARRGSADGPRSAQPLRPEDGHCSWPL
The test is described as follows: Jurkat-PD-1 Cell Binding High-Content Screening Assay (CBA). The class given is cell-based. The settings on record: Jurkat cell line over-expressing human PD-1; PE-labeled PD-L1-Ig 20 nM final; read-out: Jurkat hPD1-PDL1 IC50. Summed up:
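Jurkat cells stably over-expressing human PD-1 were seeded in DMEM with 10% fetal calf serum and pre-incubated with compound for 2 h at 37° C. PE-labeled human PD-L1-Ig was then added at 20 nM final for 1 hour, after which cells were fixed with paraformaldehyde, Hoechst-stained and imaged by high-content microscopy.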
Take `Cc1cccc(C[C@@H]2NC(=O)[C@H](CC(=O)O)NC(=O)[C@H](Cc3ccc(OCC(=O)O)cc3)NC(=O)[C@H](CN)NC(=O)CSC[C@@H](C(=O)N[C@@H](C)C(=O)N[C@@H](CCC(=O)O)C(=O)NCCCCCCCCCCC(=O)O)NC(=O)[C@H]([C@@H](C)O)NC(=O)[C@H](C(C)C)NC(=O)[C@H](CC3CCCCC3)NC(=O)[C@H](CCN)NC(=O)[C@@H](CC(C)C)NC(=O)[C@H](CCCN)NC(=O)[C@H](CCC(=O)O)NC(=O)[C@H](Cc3ccc(-c4ccccc4)cc3)NC(=O)[C@H](C(C)C)NC2=O)c1` [Compound 1044] ({CH2CO}-[Dap]Y(Carboxymethyl)D[Phe(3-Me)]V[Bip]E[Orn][dL][Dab][Cha]VTCAE[Aun]-OH; thioether N-14): the IC50 (as a rule, the midpoint of a concentration-inhibition curve) turned out to be 6.1 nM.

Consider `CC[C@H](C)[C@@H]1NC(=O)[C@H](Cc2ccc(-c3ccccc3)cc2)NC(=O)[C@H](C(C)C)NC(=O)[C@H](Cc2c[nH]c3ccccc23)NC(=O)[C@H](CC(=O)O)NC(=O)[C@H](Cc2ccc(OCC(=O)O)cc2)NC(=O)[C@H](Cc2ccncc2)NC(=O)CSC[C@@H](C(=O)N[C@@H](CCCN)C(=O)NCCOCCOCC(=O)NC2(C(=O)NCCCCCCCCCCC(=O)O)CC2)NC(=O)[C@H]([C@@H](C)O)NC(=O)[C@H](C(C)C)NC(=O)[C@H](CC(C)C)NC(=O)[C@H](CCN)NC(=O)[C@@H](CC(C)C)NC(=O)[C@H](CCCN)NC1=O` [Compound 2005] ({CH2CO}-[4Pal]Y(Carboxymethyl)DWV[Bip]I[Orn][dL][Dab]LVTC[Orn][AEEA][Ac3c][Aun]-OH; thioether N-14), for which the IC50 was found to be 11.6 nM.

As for `Cc1cccc(C[C@@H]2NC(=O)[C@H](CC(=O)O)NC(=O)[C@H](Cc3ccc(OCC(=O)O)cc3)NC(=O)[C@H](CCCNC(=N)N)NC(=O)CSC[C@@H](C(=O)N[C@@H](CCN)C(=O)NCCCCCCCCCCC(=O)O)NC(=O)[C@H](CCC(=O)O)NC(=O)[C@H](C(C)C)NC(=O)[C@H](CC3CCCCC3)NC(=O)[C@H](CCN)NC(=O)[C@@H](CC(C)C)NC(=O)[C@H](CCN)NC(=O)[C@H](CCCNC(N)=O)NC(=O)[C@H](Cc3ccc(-c4ccccc4)cc3)NC(=O)[C@H](C(C)C)NC2=O)c1` [Compound 2778] ({CH2CO}-RY(Carboxymethyl)D[Phe(3-Me)]V[Bip][Cit][Dab][dL][Dab][Cha]VEC[Dab][Aun]-OH; thioether N-14), the concentration for half-maximal inhibition (IC50) was determined as 8.9 nM. To `CC(C)C[C@H]1NC(=O)[C@H](CCCN)NC(=O)[C@H](Cc2ccc(OCC(=O)O)cc2)NC(=O)[C@H](Cc2ccc(-c3ccccc3)cc2)NC(=O)[C@H](Cc2ccc(OCC(=O)O)cc2)NC(=O)[C@H](Cc2cccc(C(F)(F)F)c2)NC(=O)[C@H](CC(=O)O)NC(=O)[C@H](Cc2ccc(OCC(=O)O)cc2)NC(=O)[C@H](C)NC(=O)CSC[C@@H](C(=O)N[C@@H](CCN)C(=O)NCCCCCCCCCCCCCCC(=O)O)NC(=O)[C@H](Cc2cnc[nH]2)NC(=O)[C@H](C(C)(C)O)NC(=O)[C@H](CC2CCCCC2)NC(=O)[C@H](CCN)NC1=O` [Compound 3852] ({CH2CO}-AY(Carboxymethyl)D[Phe(3-CF3)]Y(Carboxymethyl)[Bip]Y(Carboxymethyl)[Orn][dL][Dab][Cha][Val(3-OH)]HC[Dab]-{NH(CH2)14COOH}; thioether N-14) belongs 142 nM; to `CC[C@@H]1NC(=O)CSC[C@@H](C(=O)N[C@@H](CCN)C(=O)NCCOCCOCC(=O)N[C@@H](CCC(=O)O)C(=O)NCCCCCCCCCCCCC(=O)O)NC(=O)[C@H](CO)NC(=O)[C@H](C(C)(C)O)NC(=O)[C@H](CC2CCCCC2)NC(=O)[C@H](CCN)NC(=O)[C@@H](CC(C)C)NC(=O)[C@H](CCCN)NC(=O)[C@H](Cc2ccc(OCC(=O)O)cc2)NC(=O)[C@H](Cc2ccc(-c3ccccc3)cc2)NC(=O)[C@H](Cc2ccc(OCC(=O)O)cc2)NC(=O)[C@H](Cc2cccc(C)c2)NC(=O)[C@H](CC(=O)O)NC(=O)[C@H](Cc2ccc(OCC(=O)O)cc2)NC1=O` [Compound 3811] ({CH2CO}-[Abu]Y(Carboxymethyl)D[Phe(3-Me)]Y(Carboxymethyl)[Bip]Y(Carboxymethyl)[Orn][dL][Dab][Cha][Val(3-OH)]SC[Dab][AEEA]E-{NH(CH2)12COOH}; thioether N-14), 3.9 nM; to `CC[C@H](C)[C@@H]1NC(=O)[C@H](Cc2ccc(-c3ccccc3)cc2)NC(=O)[C@H](C(C)C)NC(=O)[C@H](Cc2cccc(C)c2)NC(=O)[C@H](CC(=O)O)NC(=O)[C@H](Cc2ccc(OCC(=O)O)cc2)NC(=O)[C@H](CN)NC(=O)CSC[C@@H](C(=O)N[C@@H](CCCCN)C(=O)NCCCCCCCCCCC(=O)O)NC(=O)[C@H](CCCN)NC(=O)[C@H](C(C)C)NC(=O)[C@H](CC2CCCCC2)NC(=O)[C@H](CCN)NC(=O)[C@@H](CC(C)C)NC(=O)[C@H](CCCN)NC1=O` [Compound 2640] ({CH2CO}-[Dap]Y(Carboxymethyl)D[Phe(3-Me)]V[Bip]I[Orn][dL][Dab][Cha]V[Orn]CK[Aun]-OH; thioether N-14), 8.1 nM. To `CC(C)C[C@H]1NC(=O)[C@H](CCCN)NC(=O)[C@H](C(C)C)NC(=O)[C@H](Cc2ccc(-c3ccccc3)cc2)NC(=O)[C@H](C(C)C)NC(=O)[C@H](Cc2c[nH]c3ccccc23)NC(=O)[C@H](CC(=O)O)NC(=O)[C@H](Cc2ccc(C(=O)O)cc2)NC(=O)[C@H](Cc2ccc(OCC(=O)O)cc2)NC(=O)CSC[C@@H](C(=O)N[C@@H](CCN)C(=O)NCCOCCOCC(=O)NCCCCCCCCCCC(=O)O)NC(=O)[C@H](CCCCN)NC(=O)[C@H](C(C)C)NC(=O)[C@H](CC2CCCCC2)NC(=O)[C@H](CCN)NC1=O` [Compound 2547] ({CH2CO}-Y(Carboxymethyl)[Phe(4-COOH)]DWV[Bip]V[Orn][dL][Dab][Cha]VKC[Dab][AEEA][Aun]-OH; thioether N-14) belongs 31.9 nM. The figure for `Cc1cccc(C[C@@H]2NC(=O)[C@H](CC(=O)O)NC(=O)[C@H](Cc3ccc(OCC(=O)O)cc3)NC(=O)[C@H](CN)NC(=O)CSC[C@@H](C(=O)N[C@@H](CCCCN)C(=O)NCCOCCOCC(=O)NCCCCCCCCCCC(=O)O)NC(=O)[C@H](CCCNC(=N)N)NC(=O)[C@H](C(C)C)NC(=O)[C@H](CC3CCCCC3)NC(=O)[C@H](CCN)NC(=O)[C@@H](CC(C)C)NC(=O)[C@H](CCCN)NC(=O)[C@H](CCCNC(N)=O)NC(=O)[C@H](Cc3ccc(-c4ccccc4)cc3)NC(=O)[C@H](C(C)C)NC2=O)c1` [Compound 2653] ({CH2CO}-[Dap]Y(Carboxymethyl)D[Phe(3-Me)]V[Bip][Cit][Orn][dL][Dab][Cha]VRCK[AEEA][Aun]-OH; thioether N-14) is 11.2 nM. Consider `Cc1cccc(C[C@@H]2NC(=O)[C@H](CC(=O)O)NC(=O)[C@H](Cc3ccc(OCC(=O)O)cc3)NC(=O)[C@H](CCCNC(=N)N)NC(=O)CSC[C@@H](C(=O)N[C@@H](CNC(=O)C(C)(C)C)C(=O)NCCCCCCCCCCC(=O)O)NC(=O)[C@H](C(C)O)NC(=O)[C@H](C(C)C)NC(=O)[C@H](CC3CCCCC3)NC(=O)[C@H](CCN)NC(=O)[C@@H](CC(C)C)NC(=O)[C@H](CCCN)NC(=O)[C@H](CCCNC(N)=O)NC(=O)[C@H](Cc3ccc(-c4ccccc4)cc3)NC(=O)[C@H](C(C)C)NC2=O)c1` (stereo partly drawn) [Compound 3510] ({CH2CO}-RY(Carboxymethyl)D[Phe(3-Me)]V[Bip][Cit][Orn][dL][Dab][Cha]V[Thr(3ξ)]C[Dap](Piv)[Aun]-OH; thioether N-14), for which the half-inhibitory concentration (IC50) worked out at 55.3 nM.

For `Cc1cccc(C[C@@H]2NC(=O)[C@H](CC(=O)O)NC(=O)[C@H](Cc3ccc(OCC(=O)O)cc3)NC(=O)[C@H](CCCNC(=N)N)NC(=O)CSC[C@@H](C(=O)N[C@@H](CCN)C(=O)NCCCCCCCCCCC(=O)O)NC(=O)[C@H](CCC(N)=O)NC(=O)[C@H](C(C)C)NC(=O)[C@H](CC3CCCCC3)NC(=O)[C@H](CCN)NC(=O)[C@@H](CC(C)C)NC(=O)[C@H](CCCN)NC(=O)[C@H](Cc3ccc(OCC(=O)O)cc3)NC(=O)[C@H](Cc3ccc(-c4ccccc4)cc3)NC(=O)[C@H](Cc3ccc(CCC(=O)O)cc3)NC2=O)c1` [Compound 2129] ({CH2CO}-RY(Carboxymethyl)D[Phe(3-Me)][Phe(4-CH2CH2COOH)][Bip]Y(Carboxymethyl)[Orn][dL][Dab][Cha]VQC[Dab][Aun]-OH; thioether N-14), the 50% inhibitory concentration (IC50) came out at 6 nM. As for `Cc1cccc(C[C@@H]2NC(=O)[C@H](CC(=O)O)NC(=O)[C@H](Cc3ccc(C#N)cc3)NC(=O)[C@H](C(C)O)NC(=O)CSC[C@@H](C(=O)N[C@@H](CCN)C(=O)NCCOCCOCC(=O)NCCOCCOCC(=O)NCCCCCCCCCCC(=O)O)NC(=O)[C@H](Cc3cnc[nH]3)NC(=O)[C@H](C(C)(C)O)NC(=O)[C@H](CC3CCCCC3)NC(=O)[C@H](CCN)NC(=O)[C@@H](CC(C)C)NC(=O)[C@H](CCCN)NC(=O)[C@H](Cc3ccc(OCC(=O)O)cc3)NC(=O)[C@H](Cc3ccc(-c4ccccc4)cc3)NC(=O)[C@H](Cc3ccc(OCC(=O)O)cc3)NC2=O)c1` (stereo partly drawn) [Compound 3773] ({CH2CO}-[Thr(3ξ)][Phe(4-CN)]D[Phe(3-Me)]Y(Carboxymethyl)[Bip]Y(Carboxymethyl)[Orn][dL][Dab][Cha][Val(3-OH)]HC[Dab][AEEA][AEEA][Aun]-OH; thioether N-14), the IC50 stood at 1 nM. To `Cc1cccc(C[C@@H]2NC(=O)[C@H](CC(=O)O)NC(=O)[C@H](Cc3ccc(OCC(=O)O)cc3)NC(=O)[C@H](CN)NC(=O)CSC[C@@H](C(=O)N[C@@H](CCN)C(=O)NCCOCCOCC(=O)NCCCCCCCCCCC(=O)O)NC(=O)[C@H](CCCN)NC(=O)[C@H](C(C)C)NC(=O)[C@H](CC3CCCCC3)NC(=O)[C@H](CCN)NC(=O)[C@@H](CC(C)C)NC(=O)[C@H](CCCN)NC(=O)[C@H](Cc3ccc(O)cc3)NC(=O)[C@H](Cc3ccc(-c4ccccc4)cc3)NC(=O)[C@H](Cc3ccccc3C)NC2=O)c1` [Compound 2069] ({CH2CO}-[Dap]Y(Carboxymethyl)D[Phe(3-Me)][Phe(2-Me)][Bip]Y[Orn][dL][Dab][Cha]V[Orn]C[Dab][AEEA][Aun]-OH; thioether N-14) belongs 14.9 nM.

These data come from patent US20260022142A1, “MACROCYCLIC IMMUNOMODULATORS” (Bristol-Myers Squibb Company, priority 2022, published 2026).
